Assay results: US20060074061A1, “Formulations of glucocorticoids to treat pathologic ocular angiogenesis” (priority 2003, published 2006)

Assay: Topical anecortave acetate in patients with glucocorticoid induced ocular hypertension (IOP)
Assay type: in vivo, human
Settings: patients (n=15) with glucocorticoid induced ocular hypertension; 1% eye drops topically three times per day for up to 12 weeks; glucocorticoid medication continued; IOP before treatment 29 mm Hg; significantly reduced
Protocol: Patients (η=15) with documented glucocorticoid induced ocular hypertension were treated topically with 1% anecortave acetate eye drops three times per day for up to 12 weeks. The patients continued to receive their glucocorticoid medication.

With CC(=O)OCC(=O)[C@@]1(O)CC[C@H]2[C@@H]3CCC4=CC(=O)CC[C@]4(C)C3=CC[C@@]21C [anecortave acetate, 4,9(11)-pregnadien-17α,21-diol-3,20dione-21-acetate] the “IOP after anecortave acetate treatment” value was 19-22 mm Hg.
